The values below come from patent US8980823B2, “Formulations of Factor VIIa inhibitors and utility” (priority 2012, dated 2015).

The assay has as its system Laser-induced CNV. Kind of assay: Laser-induced Choroidal Neovascularization (CNV) model. To be noted: single i-v injection on D0, evaluated D10; r-TFPI 0.2 ug; VIIa-i (Compound A-NO NP) 5.08 ug. Type of assay: in vivo, brown Norway rats. Here is the method:
For Choroidal Neovascularization (CNV) induction in rats, brown Norway rats were anesthetized and pupils dilated. Argon red laser photocoagulation (50-um spot size, 0.05 sec duration) was used to generate 4 laser spots for each eye surrounding the optic nerve. A bubble forms at the laser spot indicating rupture of Bruch's membrane. The laser spots were evaluated for the presence of CNV on day 10 after laser treatment using confocal microscopy. Administration of test compounds: Immediately after CNV induction, test compounds were given once by intravitreal injection, i-v (VIIa-i versus r-TFPI). For characterization of efficacy in preventing laser-induced CNV in the eyes of rats, the incidence of CNV-positive or CNV-negative spots was determined by confocal microscopy. Rats were perfused with a FITC-dextran solution just prior to sacrifice. After the eyes were excised and choroidal flat mounts prepared, the mounts were stained with a mAb against mouse or rat elastin and then with CY3-conjugated secondary antibody. The prominent neovascular growth stains green whereas the underlying elastin in the Bruch's membrane stains red within the laser spot. The inhibition of new vessel growth is indicated by the absence of vessels with a green stain, and the size of the CNV is measured using Image Pro plus Software. […] Animals were sacrificed on D10, and CNV evaluated as described in methods.

Entries after “also recorded” stand apart in the source; their conditions may differ.

With “r-TFPI: recombinant tissue factor pathway inhibitor”, the “inhibition of laser-induced CNV” value is on record as “highly effective in inhibiting laser-induced CNV; also recorded: significant reduction in neovascular growth”.
